Patent US11690847B2, “Combinations of 15-PGDH inhibitors with corticosteroids and/or TNF inhibitors and uses thereof” (CASE WESTERN RESERVE UNIVERSITY, priority 2016, dated 2023)

How the values were obtained:
DSS induced colitis [1] = assay: DSS colitis treatment study: (+) SW033291, dexamethasone or combination from day 8; assay type: in vivo, mice; conditions: (+) SW033291 5 mpk IP twice daily, dexamethasone 0.06 mpk IP daily
[2] = stability on incubation with human liver extracts; assay type: in vitro ADME
[3] = stability on incubation with mouse liver extracts; assay type: in vitro ADME
[4] = stability on incubation with rat liver extracts; assay type: in vitro ADME
DSS induced colitis [5] = assay: dextran sodium sulfate (DSS) induced colitis, 2% DSS days 1-7, SW033291 versus vehicle; assay type: in vivo, FVB male mice
Method: In the study, 8-12 week old FVB male mice were fed with 2% DSS in drinking water for days 1-7, and then switched to normal drinking water beginning on day 8, and continued through day 22. […] Clinical scoring (body weight, rectal bleeding, stool consistency) was recorded daily, endoscopic scoring (ulcer number, mucosal thickening, and vascular pattern) was assessed on days 8, 11, 15. Mice were sacrificed on days 1, 8, 15 and 22 for assessment of colon length, colon weight, ulcer number, ulcer area, and crypt damage.
The Disease Activity Index is calculated as an equally weighted average of the change from baseline weight, the consistency of stool, and the presence of rectal bleeding, with each component normalized to span an identical numerical range.
In addition to the gross visual inspection and scoring of colitis activity by the MEICS index, full length colons of mice were formalin fixed and paraffin embedded, and microscopic scoring of crypt damage was performed using the 0-4 severity scale of Cooper H S. Et al., Lab Invest. 1993; 69:238-249. For this analysis, the colons were divided into 3 segments of proximal, middle, and distal colon, each approximately 1.6 cm in length, with each segment was further subdivided into 4 sections each approximately 4 mm in length. For each section the crypt damage severity score was multiplied by the length in mm of the damaged area, creating a 0-16 cryptitis severity index. An average cryptitis severity index was calculated for each segment (proximal, middle, and distal colon), and the summed whole colon cryptitis severity index was determined on a scale of 0-48 for each mouse colon.
Mice were injected with BrdU at 100 mg/kg IP 3 hours before sacrifice and then full length colons were formalin fixed and embedded in paraffin. S-phase cells, that have incorporated BrdU into DNA, were visualized by immuno-fluorescent staining of 5 μm thick sections with an antibody that detects the BrdU. Colonic crypts were visualized by immuno-fluorescent staining with an antibody to the epithelial marker E-Cadherin. […] Red immune-fluorescence identifies BrdU positive nuclei, and green immune-fluorescence identifies E-Cadherin positive colonocytes. The number of BrdU positive cell per crypt is determined by counting the number of dual labeled red and green cells per average crypt. Green only cells that are not in S-phase are not counted, and red only cells, that are likely stromal cells outside of crypts, are also not counted. […] The graph depicts the sum of the average number of BrdU positive cells per crypt in the distal colon plus the average number of BrdU positive cells per crypt middle colons of control (Cn), […] treated (Tx), and 15-PGDH knockout mice (KO) on day 1, day 8, and day 15 of the DSS treatment protocol.

[6] = stability on incubation with hepatocyte cell lines; assay type: in vitro ADME
[7] = stability on incubation with hepatocyte extracts; assay type: in vitro ADME

C[C@@H]1C[C@H]2[C@@H]3CCC4=CC(=O)C=C[C@]4(C)[C@@]3(F)[C@@H](O)C[C@]2(C)[C@@]1(O)C(=O)CO [dexamethasone, reference compound]
percent decrease in total DAI (relative disease reduction) (DSS induced colitis [1]; area under the DAI curve, FIG. 17B): 15%

CCCC[S+]([O-])c1sc2nc(-c3nccs3)cc(-c3cnc(C)n3C)c2c1N (centres unmarked) [formula (X)]
chemical stability when incubated with liver extracts [2]: chemically stable
chemical stability when incubated with liver extracts [3]: chemically stable
chemical stability when incubated with liver extracts [4]: chemically stable

CCCC[S+]([O-])c1sc2nc(-c3cccs3)cc(-c3ccccc3)c2c1N (centres unmarked) [SW033291]
average change from baseline weight versus control (DSS induced colitis [5]; 5 mg/kg IP twice daily, 22 days, FIG. 1): greater weight at all time points
weight gain after washout of DSS versus control (DSS induced colitis [5]; 5 mg/kg IP twice daily, P=0.001, FIG. 1): faster weight gain
Wt @sacrifice (DSS induced colitis [5]; Baseline): 25.9 ± 0.7 gm
Wt @sacrifice (DSS induced colitis [5]; Day 8): 26.4 ± 0.5 gm
Wt @sacrifice (DSS induced colitis [5]; Day 15): 25.2 ± 0.9 gm
Wt @sacrifice (DSS induced colitis [5]; Day 22): 28.2 ± 0.5 gm
body weight versus vehicle control (in words) (DSS induced colitis [5]; day 22): greater body weight
colon length versus vehicle control (in words) (DSS induced colitis [5]; day 22): greater colon lengths
ulcer formation prevented (colonoscopy) (DSS induced colitis [5]; days 8, 11, 15, versus control, FIG. 4A): two-thirds
MEICS score versus vehicle (DSS induced colitis [5]; days 8, 11 and 15, FIG. 7): significantly less colitis activity

CCCC[S+]([O-])c1sc2nc(-c3cccs3)cc(-c3ccccc3)c2c1N (single isomer, unassigned; (+)) [(+) SW033291]
daily weights (weight loss) (DSS induced colitis [1]; days 1-17, from day 8, FIG. 15): some amelioration of weight loss

CCCC[S+]([O-])c1sc2nc(-c3cccs3)cc(-c3ccccc3)c2c1N (centres unmarked) [formula (IX)]
chemical stability when incubated with hepatocyte cell lines [6]: chemically stable
chemical stability when incubated with hepatocyte extracts [7]: chemically stable
